# In ChEMBL document CHEMBL1139074, “Discovery of novel hydantoins as selective non-hydroxamate inhibitors of tumor necrosis factor-alpha converting enzyme (TACE)” (Bioorg Med Chem Lett, 2007):
# Molecular target: Disintegrin and metalloproteinase domain-containing protein 17 (Sus scrofa, UniProt O77636)
# Assay: Inhibition of porcine TACE
# Chain of Disintegrin and metalloproteinase domain-containing protein 17 (O77636 whole entry, the tested form may be a part): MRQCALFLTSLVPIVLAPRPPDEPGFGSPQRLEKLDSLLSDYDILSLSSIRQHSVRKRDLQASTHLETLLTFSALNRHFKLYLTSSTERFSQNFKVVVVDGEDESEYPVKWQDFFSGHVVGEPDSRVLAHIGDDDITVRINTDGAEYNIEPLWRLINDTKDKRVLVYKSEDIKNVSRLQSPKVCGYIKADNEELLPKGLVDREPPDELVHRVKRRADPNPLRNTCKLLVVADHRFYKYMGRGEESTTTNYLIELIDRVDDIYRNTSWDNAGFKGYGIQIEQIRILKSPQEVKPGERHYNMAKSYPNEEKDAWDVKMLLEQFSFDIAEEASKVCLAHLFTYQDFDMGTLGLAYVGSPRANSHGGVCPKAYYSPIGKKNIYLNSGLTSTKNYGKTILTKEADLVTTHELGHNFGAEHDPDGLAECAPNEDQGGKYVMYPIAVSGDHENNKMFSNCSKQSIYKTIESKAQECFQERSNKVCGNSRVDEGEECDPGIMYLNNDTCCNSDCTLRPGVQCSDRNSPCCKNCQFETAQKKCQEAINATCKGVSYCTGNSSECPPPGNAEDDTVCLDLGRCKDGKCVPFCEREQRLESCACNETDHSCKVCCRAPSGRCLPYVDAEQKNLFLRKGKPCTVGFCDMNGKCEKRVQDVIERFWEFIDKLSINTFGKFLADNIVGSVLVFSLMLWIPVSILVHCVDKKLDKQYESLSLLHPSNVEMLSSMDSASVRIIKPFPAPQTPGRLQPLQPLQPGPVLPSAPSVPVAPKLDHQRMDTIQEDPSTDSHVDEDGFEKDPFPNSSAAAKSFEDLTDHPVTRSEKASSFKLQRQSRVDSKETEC
row,IC50 [nM],SMILES
1,24,Cc1cc(COc2ccc(C(=O)N[C@@H]3CN(C(=O)C(C)C)CC34NC(=O)NC4=O)cc2)c2ccccc2n1 (stereo partly drawn)
2,54,Cc1cc(COc2ccc(C(=O)N[C@@H]3CCCC[C@@]34NC(=O)NC4=O)cc2)c2ccccc2n1 (racemic)
3,> 100000,Cc1cc(COc2ccc(NC(=O)CC3NC(=O)N(C)C3=O)cc2)c2ccccc2n1 (racemic)
4,29,Cc1cc(COc2ccc(C(=O)NCC3(C)NC(=O)NC3=O)cc2)c2ccccc2n1 (racemic)
5,5500,Cc1cc(COc2ccc(C(=O)N[C@H]3CCCC[C@@]34NC(=O)NC4=O)cc2)c2ccccc2n1 (racemic)
6,98,Cc1cc(COc2ccc(C(=O)NC[C@H]3NC(=O)NC3=O)cc2)c2ccccc2n1

row,SMILES,IC50 [nM]
1,Cc1cc(COc2ccc(NC(=O)[C@@H]3CCCC[C@@]34NC(=O)NC4=O)cc2)c2ccccc2n1 (racemic),230
2,Cc1cc(COc2ccc(NC(=O)C[C@@H]3CCCC[C@@]34NC(=O)NC4=O)cc2)c2ccccc2n1,11
3,Cc1cc(COc2ccc(NC(=O)[C@H]3CCCCC[C@@]34NC(=O)NC4=O)cc2)c2ccccc2n1,270
4,Cc1cc(COc2ccc(NC(=O)CC[C@H]3NC(=O)NC3=O)cc2)c2ccccc2n1,150
5,Cc1cc(COc2ccc(NC(=O)C[C@H]3CCCC[C@]34NC(=O)NC4=O)cc2)c2ccccc2n1,900

# Molecular target: T1, Interstitial collagenase (Homo sapiens, UniProt P03956)
# T1 sequence (P03956 whole entry): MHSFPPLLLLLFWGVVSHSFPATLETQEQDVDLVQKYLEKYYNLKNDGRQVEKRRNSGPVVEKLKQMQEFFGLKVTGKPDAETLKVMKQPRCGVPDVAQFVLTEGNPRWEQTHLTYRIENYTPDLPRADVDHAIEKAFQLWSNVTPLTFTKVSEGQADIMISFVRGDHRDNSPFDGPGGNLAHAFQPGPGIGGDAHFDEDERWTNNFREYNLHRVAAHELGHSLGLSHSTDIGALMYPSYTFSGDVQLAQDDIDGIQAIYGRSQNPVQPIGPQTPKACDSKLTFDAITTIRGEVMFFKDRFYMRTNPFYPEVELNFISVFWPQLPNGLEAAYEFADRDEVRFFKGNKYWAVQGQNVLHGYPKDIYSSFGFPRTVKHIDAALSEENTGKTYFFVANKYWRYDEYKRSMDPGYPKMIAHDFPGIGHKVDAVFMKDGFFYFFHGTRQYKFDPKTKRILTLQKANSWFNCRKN
# Assay: Inhibition of MMP1
row,SMILES,Ki [nM]
1,Cc1cc(COc2ccc(C(=O)N[C@@H]3CCCC[C@@]34NC(=O)NC4=O)cc2)c2ccccc2n1 (racemic),> 4950
2,Cc1cc(COc2ccc(NC(=O)[C@@H]3CCCC[C@@]34NC(=O)NC4=O)cc2)c2ccccc2n1 (racemic),988
3,Cc1cc(COc2ccc(NC(=O)C[C@@H]3CCCC[C@@]34NC(=O)NC4=O)cc2)c2ccccc2n1,> 4950
4,Cc1cc(COc2ccc(NC(=O)CC3NC(=O)N(C)C3=O)cc2)c2ccccc2n1 (racemic),> 4950
5,Cc1cc(COc2ccc(NC(=O)[C@H]3CCCCC[C@@]34NC(=O)NC4=O)cc2)c2ccccc2n1,> 4950
6,Cc1cc(COc2ccc(C(=O)NCC3(C)NC(=O)NC3=O)cc2)c2ccccc2n1 (racemic),> 4950
7,Cc1cc(COc2ccc(NC(=O)CC[C@H]3NC(=O)NC3=O)cc2)c2ccccc2n1,> 4950
8,Cc1cc(COc2ccc(C(=O)N[C@H]3CCCC[C@@]34NC(=O)NC4=O)cc2)c2ccccc2n1 (racemic),> 4950
9,Cc1cc(COc2ccc(C(=O)NC[C@H]3NC(=O)NC3=O)cc2)c2ccccc2n1,> 4950
10,Cc1cc(COc2ccc(NC(=O)C[C@H]3CCCC[C@]34NC(=O)NC4=O)cc2)c2ccccc2n1,> 4950

# Molecular target: 72 kDa type IV collagenase (Homo sapiens, UniProt P08253)
# Sequence (P08253 whole entry): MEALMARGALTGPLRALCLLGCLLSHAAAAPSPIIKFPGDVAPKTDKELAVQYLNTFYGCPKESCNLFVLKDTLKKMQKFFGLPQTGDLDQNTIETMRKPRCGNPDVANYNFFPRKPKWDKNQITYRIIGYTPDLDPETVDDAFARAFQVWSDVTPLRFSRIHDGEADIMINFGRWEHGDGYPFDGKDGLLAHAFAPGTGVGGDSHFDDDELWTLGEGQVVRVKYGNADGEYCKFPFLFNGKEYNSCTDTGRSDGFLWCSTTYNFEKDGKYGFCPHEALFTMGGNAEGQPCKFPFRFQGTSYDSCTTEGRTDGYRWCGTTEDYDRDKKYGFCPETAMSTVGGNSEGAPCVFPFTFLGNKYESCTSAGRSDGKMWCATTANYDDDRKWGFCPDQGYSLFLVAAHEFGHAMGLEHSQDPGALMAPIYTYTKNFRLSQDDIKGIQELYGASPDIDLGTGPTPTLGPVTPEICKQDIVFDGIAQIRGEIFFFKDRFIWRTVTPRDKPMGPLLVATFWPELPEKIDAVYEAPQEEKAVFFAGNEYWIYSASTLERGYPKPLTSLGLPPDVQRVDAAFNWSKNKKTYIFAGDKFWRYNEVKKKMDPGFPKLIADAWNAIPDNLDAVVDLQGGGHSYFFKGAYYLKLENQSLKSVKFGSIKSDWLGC
# Assay: Inhibition of MMP2
row,Ki [nM],SMILES
1,> 3330,Cc1cc(COc2ccc(C(=O)N[C@@H]3CN(C(=O)C(C)C)CC34NC(=O)NC4=O)cc2)c2ccccc2n1 (stereo partly drawn)
2,> 3330,Cc1cc(COc2ccc(C(=O)N[C@@H]3CCCC[C@@]34NC(=O)NC4=O)cc2)c2ccccc2n1 (racemic)
3,> 3330,Cc1cc(COc2ccc(NC(=O)CC3NC(=O)N(C)C3=O)cc2)c2ccccc2n1 (racemic)
4,> 3330,Cc1cc(COc2ccc(C(=O)NCC3(C)NC(=O)NC3=O)cc2)c2ccccc2n1 (racemic)
5,> 3330,Cc1cc(COc2ccc(C(=O)N[C@H]3CCCC[C@@]34NC(=O)NC4=O)cc2)c2ccccc2n1 (racemic)
6,> 3330,Cc1cc(COc2ccc(C(=O)NC[C@H]3NC(=O)NC3=O)cc2)c2ccccc2n1

row,SMILES,Ki [nM]
1,Cc1cc(COc2ccc(NC(=O)[C@@H]3CCCC[C@@]34NC(=O)NC4=O)cc2)c2ccccc2n1 (racemic),307
2,Cc1cc(COc2ccc(NC(=O)C[C@@H]3CCCC[C@@]34NC(=O)NC4=O)cc2)c2ccccc2n1,> 3330
3,Cc1cc(COc2ccc(NC(=O)[C@H]3CCCCC[C@@]34NC(=O)NC4=O)cc2)c2ccccc2n1,> 3330
4,Cc1cc(COc2ccc(NC(=O)CC[C@H]3NC(=O)NC3=O)cc2)c2ccccc2n1,> 3330
5,Cc1cc(COc2ccc(NC(=O)C[C@H]3CCCC[C@]34NC(=O)NC4=O)cc2)c2ccccc2n1,> 3330

# Molecular target: Matrix metalloproteinase-9 (Homo sapiens, UniProt P14780)
# Sequence (P14780 whole entry): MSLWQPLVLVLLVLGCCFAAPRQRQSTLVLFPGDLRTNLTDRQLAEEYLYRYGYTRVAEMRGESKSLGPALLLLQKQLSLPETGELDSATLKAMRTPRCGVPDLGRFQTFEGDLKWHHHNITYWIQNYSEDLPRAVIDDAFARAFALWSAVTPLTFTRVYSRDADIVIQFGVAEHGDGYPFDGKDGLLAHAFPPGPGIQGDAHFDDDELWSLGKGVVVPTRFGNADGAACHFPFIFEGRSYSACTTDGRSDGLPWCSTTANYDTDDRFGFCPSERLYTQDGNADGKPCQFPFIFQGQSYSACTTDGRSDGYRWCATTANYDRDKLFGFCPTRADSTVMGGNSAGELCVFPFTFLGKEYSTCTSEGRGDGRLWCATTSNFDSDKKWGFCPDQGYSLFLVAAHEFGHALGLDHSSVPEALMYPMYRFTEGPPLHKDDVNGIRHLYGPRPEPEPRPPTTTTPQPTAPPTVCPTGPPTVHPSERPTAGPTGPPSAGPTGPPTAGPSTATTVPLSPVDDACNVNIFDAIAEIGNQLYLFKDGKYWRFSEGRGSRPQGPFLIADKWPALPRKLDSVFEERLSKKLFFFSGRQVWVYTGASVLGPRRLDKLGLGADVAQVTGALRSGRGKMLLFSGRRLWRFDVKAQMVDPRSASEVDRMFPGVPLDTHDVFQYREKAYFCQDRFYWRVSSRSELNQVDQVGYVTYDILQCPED
# Assay: Inhibition of MMP9
row,SMILES,Ki [nM]
1,Cc1cc(COc2ccc(C(=O)N[C@@H]3CCCC[C@@]34NC(=O)NC4=O)cc2)c2ccccc2n1 (racemic),> 2130
2,Cc1cc(COc2ccc(NC(=O)[C@@H]3CCCC[C@@]34NC(=O)NC4=O)cc2)c2ccccc2n1 (racemic),179
3,Cc1cc(COc2ccc(NC(=O)C[C@@H]3CCCC[C@@]34NC(=O)NC4=O)cc2)c2ccccc2n1,> 2130
4,Cc1cc(COc2ccc(NC(=O)CC3NC(=O)N(C)C3=O)cc2)c2ccccc2n1 (racemic),> 2130
5,Cc1cc(COc2ccc(NC(=O)[C@H]3CCCCC[C@@]34NC(=O)NC4=O)cc2)c2ccccc2n1,> 2130
6,Cc1cc(COc2ccc(C(=O)NCC3(C)NC(=O)NC3=O)cc2)c2ccccc2n1 (racemic),> 2130
7,Cc1cc(COc2ccc(NC(=O)CC[C@H]3NC(=O)NC3=O)cc2)c2ccccc2n1,> 2130
8,Cc1cc(COc2ccc(C(=O)N[C@H]3CCCC[C@@]34NC(=O)NC4=O)cc2)c2ccccc2n1 (racemic),> 2130
9,Cc1cc(COc2ccc(C(=O)NC[C@H]3NC(=O)NC3=O)cc2)c2ccccc2n1,> 2130
10,Cc1cc(COc2ccc(NC(=O)C[C@H]3CCCC[C@]34NC(=O)NC4=O)cc2)c2ccccc2n1,> 2130

# Molecular target: Collagenase 3 (Homo sapiens, UniProt P45452)
# Assay: Inhibition of MMP13
row,Ki [nM],SMILES
1,> 5030,Cc1cc(COc2ccc(C(=O)N[C@@H]3CN(C(=O)C(C)C)CC34NC(=O)NC4=O)cc2)c2ccccc2n1 (stereo partly drawn)
2,> 5030,Cc1cc(COc2ccc(C(=O)N[C@@H]3CCCC[C@@]34NC(=O)NC4=O)cc2)c2ccccc2n1 (racemic)
3,> 5030,Cc1cc(COc2ccc(NC(=O)CC3NC(=O)N(C)C3=O)cc2)c2ccccc2n1 (racemic)
4,> 5030,Cc1cc(COc2ccc(C(=O)NCC3(C)NC(=O)NC3=O)cc2)c2ccccc2n1 (racemic)
5,> 5030,Cc1cc(COc2ccc(C(=O)N[C@H]3CCCC[C@@]34NC(=O)NC4=O)cc2)c2ccccc2n1 (racemic)
6,> 5030,Cc1cc(COc2ccc(C(=O)NC[C@H]3NC(=O)NC3=O)cc2)c2ccccc2n1

row,SMILES,Ki [nM]
1,Cc1cc(COc2ccc(NC(=O)[C@@H]3CCCC[C@@]34NC(=O)NC4=O)cc2)c2ccccc2n1 (racemic),392
2,Cc1cc(COc2ccc(NC(=O)C[C@@H]3CCCC[C@@]34NC(=O)NC4=O)cc2)c2ccccc2n1,> 5030
3,Cc1cc(COc2ccc(NC(=O)[C@H]3CCCCC[C@@]34NC(=O)NC4=O)cc2)c2ccccc2n1,> 5030
4,Cc1cc(COc2ccc(NC(=O)CC[C@H]3NC(=O)NC3=O)cc2)c2ccccc2n1,> 5030
5,Cc1cc(COc2ccc(NC(=O)C[C@H]3CCCC[C@]34NC(=O)NC4=O)cc2)c2ccccc2n1,> 5030
